Key:
[1] = biological target: T1, adenosine A3 receptor (A3R) (Homo sapiens, UniProt P0DMS8); assay: Inhibition of the adenosine A3 receptor cAMP signaling pathway in CHO-K1/A3R cells (HTRF); format: cell-based; details: for IC50: CHO-K1/A3R cells, cAMP, forskolin 10 μM, 2Cl-IB-MECA 5 nM; for IC50 ratio (A3R/A2aR): selectivity A3R over A2aR
T1 construct: expressed in transfected cells; host or cells: CHO-K1
T1 sequence (P0DMS8 1-318): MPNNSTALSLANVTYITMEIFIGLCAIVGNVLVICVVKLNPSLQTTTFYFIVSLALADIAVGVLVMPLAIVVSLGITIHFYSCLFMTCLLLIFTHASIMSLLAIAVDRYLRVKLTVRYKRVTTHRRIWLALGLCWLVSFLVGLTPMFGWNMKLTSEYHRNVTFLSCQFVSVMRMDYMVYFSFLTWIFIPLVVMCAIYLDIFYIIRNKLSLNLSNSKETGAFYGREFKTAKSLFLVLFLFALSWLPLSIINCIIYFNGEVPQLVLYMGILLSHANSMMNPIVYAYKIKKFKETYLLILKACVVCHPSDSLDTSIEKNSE
Description: (§1) Determination of the inhibition activity of the compounds of the present invention on the adenosine A2a receptor (A2aR) cAMP signaling pathway, the adenosine A2b receptor (A2bR) cAMP signaling pathway, the adenosine A1 receptor (A1R) cAMP signaling pathway and the adenosine A3 receptor (A3R) cAMP signaling pathway.
(§2) The inhibition activity of the compounds of the present invention on the adenosine A2a receptor (A2aR) cAMP signaling pathway, the adenosine A2b receptor cAMP signaling pathway, the adenosine A1 receptor cAMP signaling pathway and the adenosine A3 receptor cAMP signaling pathway was determined by the following method. The experimental method is briefly described as follows:
2.4 Adenosine A3 Receptor
CHO-K1/A3R cells were cultured in DMEM/F12 medium containing 10% fetal bovine serum and 10 μg/ml puromycin. The cells were digested with the cell separation buffer during the experiment. The cells were resuspended in the balanced salt buffer containing 20 mM HEPES and 0.1% bovine serum albumin and counted, and the cell density was adjusted to 5×10^5 cells/ml. In the 384-well plate, each well was added with 12.5 μl of cell suspension, and 6.25 μl of test compound (4× concentration) formulated with the balanced salt buffer containing 20 mM HEPES, 0.1% bovine serum albumin, 54 μM rolipram and 2.7 U/ml adenosine deaminase, and the plate was incubated at room temperature for 30 minutes. Each well was then added with 6.25 μl of forskolin and 2Cl-IB-MECA (4× concentration) formulated with the balanced salt buffer containing 20 mM HEPES, 0.1% bovine serum albumin, 54 μM rolipram and 2.7 U/ml adenosine deaminase, and the plate was incubated at room temperature for 30 minutes. The final concentrations of the compounds were: 100000, 10000, 1000, 100, 10, 1, 0.1 and 0 nM. The final concentrations of forskolin was 10 μM. The final concentration of 2Cl-IB-MECA was 5 nM. Intracellular cAMP concentration was detected with the cAMP dynamic 2 kit. cAMP-d2 and Anti-cAMP-Eu-Cryptate were diluted respectively with the cAMP lysis buffer at a ratio of 1:4. Each well was added with 12.5 μl of diluted cAMP-d2, followed by addition of 12.5 μl of diluted Anti-cAMP-Eu-Cryptate, and the plate was incubated at room temperature in the dark for 1 hour. The HTRF signal values were read by the PHERAstar multi-function microplate reader.

[2] = biological target: T2, adenosine A2a receptor (A2aR) (Homo sapiens, UniProt P29274); assay: Inhibition of the adenosine A2a receptor cAMP signaling pathway in CHO-K1/A2aR cells (HTRF); format: cell-based; details: for IC50: CHO-K1/A2aR cells, cAMP, Table 1
T2 construct: expressed in transfected cells; host or cells: CHO-K1
T2 sequence (P29274 whole entry): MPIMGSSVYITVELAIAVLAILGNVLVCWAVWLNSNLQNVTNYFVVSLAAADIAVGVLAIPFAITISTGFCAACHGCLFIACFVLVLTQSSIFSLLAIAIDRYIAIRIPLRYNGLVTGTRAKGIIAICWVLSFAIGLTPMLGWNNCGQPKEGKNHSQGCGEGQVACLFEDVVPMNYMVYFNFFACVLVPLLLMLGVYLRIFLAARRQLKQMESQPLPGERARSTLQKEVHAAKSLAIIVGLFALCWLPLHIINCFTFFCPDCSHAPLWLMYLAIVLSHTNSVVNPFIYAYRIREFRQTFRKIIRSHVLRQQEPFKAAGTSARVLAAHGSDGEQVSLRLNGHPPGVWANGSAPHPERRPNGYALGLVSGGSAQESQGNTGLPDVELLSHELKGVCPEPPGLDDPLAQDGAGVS
Description: as §1, §2
2.1 Adenosine A2a receptor
CHO-K1/A2aR cells were cultured in DMEM/F12 medium containing 10% fetal bovine serum and 800 μg/ml bleomycin. The cells were digested with the cell separation buffer during the experiment. The cells were resuspended in the balanced salt buffer containing 20 mM HEPES and 0.1% bovine serum albumin and counted, and the cell density was adjusted to 10^6 cells/ml. In the 384-well plate, each well was added with 5 μl of cell suspension, and 2.5 μl of test compound (4× concentration) formulated with the balanced salt buffer containing 20 mM HEPES, 0.1% bovine serum albumin, 54 μM rolipram and 2.7 U/ml adenosine deaminase, and the plate was incubated at room temperature for 30 minutes. Each well was then added with 2.5 μl of […] (4× concentration) formulated with the balanced salt buffer containing 20 mM HEPES, 0.1% bovine serum albumin, 54 μM rolipram and 2.7 U/ml adenosine deaminase, and the plate was incubated at room temperature for 30 minutes. The final concentrations of the compounds were: 10000, 2000, 400, 80, 16, 3.2, 0.64, 0.128, 0.0256, 0.00512, and 0.001024 nM. The final concentration of […] was 20 nM. Intracellular cAMP concentration was detected with the cAMP dynamic 2 kit. cAMP-d2 and Anti-cAMP-Eu-Cryptate were diluted respectively with the cAMP lysis buffer at a ratio of 1:4. Each well was added with 5 μl of diluted cAMP-d2, followed by addition of 5 μl of diluted Anti-cAMP-Eu-Cryptate, and the plate was incubated at room temperature in the dark for 1 hour. The HTRF signal values were read by the PHERAstar multi-function microplate reader.

| SMILES | IC50 [1] | IC50 ratio (A3R/A2aR) [1] | IC50 ([2]; NECA 20 nM) | difference in inhibition activity on the adenosine A2a receptor versus Comparative Example 1 ([2]; compared with Comparative Example 1) | IC50 ([2]; 20 nM) |
| --- | --- | --- | --- | --- | --- |
| Nc1nnc(-c2ccc3ncccc3c2)c(-c2ccccc2)n1 [Example 3, 5-Phenyl-6-(quinolin-6-yl)-1,2,4-triazin-3-amine] | > 10000 nM | >10^4 | 0.7 nM | 225 times | – |
| Nc1nnc(-c2cc(F)c3ncccc3c2)c(-c2ccccc2)n1 [Example 2, 6-(8-Fluoroquinolin-6-yl)-5-phenyl-1,2,4-triazin-3-amine] | > 10000 nM | >10^4 | 0.6 nM | – | – |
| Cc1ccnc2ccc(-c3nnc(N)nc3-c3ccc(F)cc3)cc12 [Example 18, 5-(4-Fluorophenyl)-6-(4-methylquinolin-6-yl)-1,2,4-triazin-3-amine] | > 10000 nM | >10^4 | 0.2 nM | – | – |
| Cc1ncnc2ccc(-c3nnc(N)nc3-c3ccccc3)cc12 [Example 15, 6-(4-Methylquinazolin-6-yl)-5-phenyl-1,2,4-triazin-3-amine] | > 10000 nM | >10^4 | 0.1 nM | – | – |
| Cc1ncnc2ccc(-c3nnc(N)nc3-c3ccc(F)cc3)cc12 [Example 19, 5-(4-Fluorophenyl)-6-(4-methylquinazolin-6-yl)-1,2,4-triazin-3-amine] | > 10000 nM | >10^4 | – | – | 0.4 nM |
| Cc1ccnc2c(F)cc(-c3nnc(N)nc3-c3ccc(F)cc3)cc12 [Example 20, 6-(8-Fluoro-4-methylquinolin-6-yl)-5-(4-fluorophenyl)-1,2,4-triazin-3-amine] | > 10000 nM | >10^3 | 1.5 nM | – | – |
| Cc1ccnc2c(F)cc(-c3nnc(N)nc3-c3ccccc3)cc12 [Example 16, 6-(8-Fluoro-4-methylquinolin-6-yl)-5-phenyl-1,2,4-triazin-3-amine] | > 10000 nM | >10^4 | 0.2 nM | – | – |
| Cc1ccnc2ccc(-c3nnc(N)nc3-c3ccccc3F)cc12 [Example 17, 5-(2-Fluorophenyl)-6-(4-methylquinolin-6-yl)-1,2,4-triazin-3-amine] | > 10000 nM | >10^4 | 0.5 nM | – | – |

Other lines, results leading:

| IC50 [1] | IC50 ratio (A3R/A2aR) [1] | IC50 ([2]; NECA 20 nM) | difference in inhibition activity on the adenosine A2a receptor versus Comparative Example 1 ([2]; compared with Comparative Example 1) | IC50 ([2]; 20 nM) | SMILES |
| --- | --- | --- | --- | --- | --- |
| > 10000 nM | >10^3 | 3.8 nM | – | – | Cc1ccnc2c(F)cc(-c3nnc(N)nc3-c3ccccc3F)cc12 [Example 31, 6-(8-Fluoro-4-methylquinolin-6-yl)-5-(2-fluorophenyl)-1,2,4-triazin-3-amine] |
| > 10000 nM | >10^4 | – | – | 0.9 nM | [2H]C([2H])([2H])c1ncnc2ccc(-c3nnc(N)nc3-c3ccc(F)cc3)cc12 [Example 52, 5-(4-Fluorophenyl)-6-(4-(methyl-d3)quinazolin-6-yl)-1,2,4-triazin-3-amine] |
| > 10000 nM | >10^4 | 0.3 nM | – | – | [2H]C([2H])([2H])c1ccnc2ccc(-c3nnc(N)nc3-c3ccc(F)cc3)cc12 [Example 22, 5-(4-Fluorophenyl)-6-[4-(trideuteromethyl)-6-quinolinyl]-1,2,4-triazin-3-amine] |
| > 10000 nM | >10^4 | 0.8 nM | – | – | CCc1ccnc2ccc(-c3nnc(N)nc3-c3ccc(F)cc3)cc12 [Example 44, 6-(4-Ethylquinolin-6-yl)-5-(4-fluorophenyl)-1,2,4-triazin-3-amine] |
| > 10000 nM | >10^3 | 1.2 nM | – | – | Cc1ncnc2c(F)cc(-c3nnc(N)nc3-c3ccccc3)cc12 [Example 45, 6-(8-Fluoro-4-methylquinazolin-6-yl)-5-phenyl-1,2,4-triazin-3-amine] |

From patent US11014904B2, “1,2,4-triazine-3-amine derivative, preparation method therefor, and use thereof in medicine” (Jiangsu Hengrui Medicine Co., Ltd., priority 2017, dated 2021)
